Measured values as given in patent US20030032003A1, “IN VIVO SELECTION” (priority 2000, published 2003).

Legend:
[1] = test system: hyg^R transgenic mice C57BL/6J-TgN(pPWL512hyg)1Ems; assay: Acute toxicity of hygromycin B, approximate lethal dose; assay type: in vivo, mouse; conditions: for body weight, percentage of the body weight before the experiment / survival: hyg^R, 10 days
Experimental: (§1) The animals were kept in SPF conditions, supplied with standard diet and water ad libitum. The room was held at 22° C. with humidity 70% and 12 hours dark-light cycle. Hygromycin-B was purchased from Sigma. The compound was dissolved in sterile water before application and the solution was injected i.p.
(§2) The approximate lethal dose of hygromycin B after single i.p. injections was determined according to Deichmann and LeBlanc (1943). […] Two sets of six month old male mice (22-28 g) were used for all acute toxicity experiments. […] Total volume injected was 0.5 ml. The health status and body weights of animals were monitored daily for 10 consecutive days. The lowest dose in the dose response curve at which one mouse died was considered as the approximate lethal dose. […] The animals were checked twice a day. The maximum theoretical time the animals could be dead before necropsy was performed was 12 hrs.
(§3) The approximate lethal dose (Deichmann and LeBlanc 1943) of hygromycin B in transgenic hyg^R bearing as well as wildtype mice was determined as a measure of the acute toxicity. […] The first dose in the increasing sequence of doses at which the mice died was considered the approximate lethal dose. The health status of animals was monitored for ten consecutive days. Hyg^R transgenic and wildtype mice tolerated a single i.p. injection of hygromycin B without immediate toxic symptoms or distress. The approximate lethal dose of hygromycin B for wildtype mice was […] (Table 1). […] Lethal doses in both hyg^R expressing transgenic and wild type strains caused the same signs of decreased activity which progressed to lethargy and death. The body weight of animals after lethal doses decreased which was less severe at shorter survival duration after hygromycin treatment (Table 1).

wildtype C57BL/6J mice = assay: as above; assay type: in vivo, mouse; conditions: for body weight, percentage of the body weight before the experiment / survival: wildtype, 10 days
Experimental: as §1, §2, §3

hyg^R mice [2] = assay: Biochemical analysis of serum after hygromycin B; assay type: in vivo, mouse; conditions: serum 48 hrs after treatment
Experimental: (§4) Serum biochemistry parameters analyzed included blood urea nitrogen ([…]), aspartate amino transferase (AST) and alanine amino transferase (ALT). The analyses were performed at Tufts University Veterinary Medical Diagnosis Laboratory with the chemical analyzer Hitachi 747. Blood was collected from the posterior vena cava of hyg^R mice that were treated with saline, 803 mg/kg and wildtype mice administered 9 mg/kg hygromycin B i.p.
(§5) Hyg^R mice were treated with the lethal dose of 803 mg/kg hygromycin B and wildtype mice were treated with the lethal dose of 9 mg/kg hygromycin B. As a control, hyg^R mice were also treated with the nontoxic dose of 9 mg/kg. Serum samples taken 48 hrs after treatment were evaluated for the levels of blood urea nitrogen (BUN), aspartate amino transferase (AST) and alanine amino transferase (ALT). Elevated BUN is associated with dehydration and/or renal insufficiency. Elevated activities of ALT and AST are characteristic for liver damage particularly necrosis, cirrhosis and/or hepatitis. Increased AST levels are also characteristic for muscle trauma, myocardial infarction or myositis.

wildtype mice [3] = assay: Biochemical analysis of serum after hygromycin B; assay type: in vivo, mouse; conditions: 9 mg/kg single i.p., serum 48 hrs after treatment
Experimental: as §4, §5

hyg^R mice [4] = assay: Histopathological analysis of mouse tissues after Hygromycin B; assay type: in vivo; conditions: lethal dose 803 mg/kg
Experimental: (§6) The organs were prepared as paraffin-embedded glass slides stained with hematoxylin and eosin and evaluated as per the NTP (National Toxicology Program of NIEHS) standards. […] For liver, two cross sections, one of each of the two largest liver lobes were examined. For kidneys, an entire cross section (left longitudinal, right transverse) were evaluated. Lungs had two cross sections (one of each of the two largest lobes). The entire sections on the slides (all fields) were evaluated under blinded conditions for lesions and scored (graded) on a subjective basis compared to control animals. The grades were as follows: 1=minimal, 2=mild, 3=moderate, 4=marked, and 0=no pathological changes. The preparation and evaluation of slides used the NTP criteria and terminology (NIEHS, 1993).
(§7) Morphological manifestations of hygromycin B tissue specific toxicity in animals treated with lethal doses was assessed by microscopic analysis. Lethal doses of hygromycin B (9 mg/kg) in wildtype animals caused nephrotoxicity typified by tubule eosinophilia, degeneration, and necrosis characterized by cytoplasmic eosinophilia associated with necrosis, loss of tubule cellular and nuclear detail or degeneration, and pyknotic nuclei and fragmentation of cells. These lesions are typical of acute tubular nephrosis. […] The hyg^R mice treated with lethal doses of hygromycin B (803 mg/kg) had liver damage characterized as hepatocellular fatty change, acute inflammation, and hepatocellular necrosis. Liver lesions in the hyg^R transgenic mice were typified by hepatocellular necrosis with nuclear pyknosis and loss of cellular detail, acute infiltration with small foci of neutrophils, and fatty change with hepatocellular intracytoplasmic large distinct clear vacuoles that displaced nuclei. These liver lesions are characteristic of acute liver damage.

wildtype mice [5] = assay: as above; assay type: in vivo; conditions: lethal dose 9 mg/kg
Experimental: as §6, §7

Structure (SMILES): CN[C@H]1C[C@@H](N)[C@H](O)[C@@H](O[C@@H]2O[C@H](CO)[C@H](O)[C@@H]3OC4(O[C@H]23)O[C@H]([C@@H](N)CO)[C@H](O)[C@H](O)[C@H]4O)[C@@H]1O (stereo partly drawn) [hygromycin B, Hygromycin-B]
- approximate lethal dose ([1]; hyg^R animals, single i.p.): 535 mg/kg
- increase of approximate lethal dose over the wildtype strain ([1]; hyg^R vs wildtype): 89 fold
- body weight, percentage of the body weight before the experiment ([1]; 4 mg/kg single i.p.): 102 ± 2%
- survival ([1]; 4 mg/kg single i.p.): surv (surv. animals survived the 10 days period)
- body weight, percentage of the body weight before the experiment ([1]; 6 mg/kg single i.p.): 107 ± 4%
- survival ([1]; 6 mg/kg single i.p.): surv (surv. animals survived the 10 days period)
- body weight, percentage of the body weight before the experiment ([1]; 9 mg/kg single i.p.): 107 ± 3%
- survival ([1]; 9 mg/kg single i.p.): surv (surv. animals survived the 10 days period)
- body weight, percentage of the body weight before the experiment ([1]; 13.5 mg/kg single i.p.): 101 ± 2%
- survival ([1]; 13.5 mg/kg single i.p.): surv (surv. animals survived the 10 days period)
- body weight, percentage of the body weight before the experiment ([1]; 20 mg/kg single i.p.): 105 ± 1%
- survival ([1]; 20 mg/kg single i.p.): surv (surv. animals survived the 10 days period)
- body weight, percentage of the body weight before the experiment ([1]; 30 mg/kg single i.p.): 105 ± 3%
- survival ([1]; 30 mg/kg single i.p.): surv (surv. animals survived the 10 days period)
- body weight, percentage of the body weight before the experiment ([1]; 46 mg/kg single i.p.): 107 ± 5%
- survival ([1]; 46 mg/kg single i.p.): surv (surv. animals survived the 10 days period)
- body weight, percentage of the body weight before the experiment ([1]; 69 mg/kg single i.p.): 101 ± 3%
- survival ([1]; 69 mg/kg single i.p.): surv (surv. animals survived the 10 days period)
- body weight, percentage of the body weight before the experiment ([1]; 104 mg/kg single i.p.): 103 ± 2%
- survival ([1]; 104 mg/kg single i.p.): surv (surv. animals survived the 10 days period)
- body weight, percentage of the body weight before the experiment ([1]; 155 mg/kg single i.p.): 102 ± 2%
- survival ([1]; 155 mg/kg single i.p.): surv (surv. animals survived the 10 days period)
- body weight, percentage of the body weight before the experiment ([1]; 233 mg/kg single i.p.): 93 ± 5%
- survival ([1]; 233 mg/kg single i.p.): surv (surv. animals survived the 10 days period)
- body weight, percentage of the body weight before the experiment ([1]; 358 mg/kg single i.p.): 99 ± 3%
- survival ([1]; 358 mg/kg single i.p.): surv (surv. animals survived the 10 days period)
- body weight, percentage of the body weight before the experiment ([1]; 535 mg/kg single i.p.): 83 ± 5%
- survival ([1]; 535 mg/kg single i.p.): 3 days
- body weight, percentage of the body weight before the experiment ([1]; 803 mg/kg single i.p.): 89 ± 4%
- survival ([1]; 803 mg/kg single i.p.): 3.5 days
- body weight, percentage of the body weight before the experiment ([1]; 1205 mg/kg single i.p.): 88 ± 2%
- survival ([1]; 1205 mg/kg single i.p.): 2 days
- body weight, percentage of the body weight before the experiment ([1]; 1809 mg/kg single i.p.): 97 ± 2%
- survival ([1]; 1809 mg/kg single i.p.): 1 days
- body weight, percentage of the body weight before the experiment ([1]; 2709 mg/kg single i.p.): 98 ± 1%
- survival ([1]; 2709 mg/kg single i.p.): 1 days
- approximate lethal dose (wildtype C57BL/6J mice; wildtype mice, single i.p.): 6 mg/kg
- body weight, percentage of the body weight before the experiment (wildtype C57BL/6J mice; 2.7 mg/kg single i.p.): 107 ± 3%
- survival (wildtype C57BL/6J mice; 2.7 mg/kg single i.p.): surv (surv. animals survived the 10 days period)
- body weight, percentage of the body weight before the experiment (wildtype C57BL/6J mice; 4 mg/kg single i.p.): 104 ± 1%
- survival (wildtype C57BL/6J mice; 4 mg/kg single i.p.): surv (surv. animals survived the 10 days period)
- body weight, percentage of the body weight before the experiment (wildtype C57BL/6J mice; 6 mg/kg single i.p.): 83 ± 2%
- survival (wildtype C57BL/6J mice; 6 mg/kg single i.p.): 3 days
- body weight, percentage of the body weight before the experiment (wildtype C57BL/6J mice; 9 mg/kg single i.p.): 91 ± 4%
- survival (wildtype C57BL/6J mice; 9 mg/kg single i.p.): 3 days
- body weight, percentage of the body weight before the experiment (wildtype C57BL/6J mice; 13.5 mg/kg single i.p.): 86 ± 6%
- survival (wildtype C57BL/6J mice; 13.5 mg/kg single i.p.): 3 days
- body weight, percentage of the body weight before the experiment (wildtype C57BL/6J mice; 20 mg/kg single i.p.): 83 ± 2%
- survival (wildtype C57BL/6J mice; 20 mg/kg single i.p.): 3 days
- body weight, percentage of the body weight before the experiment (wildtype C57BL/6J mice; 30 mg/kg single i.p.): 82 ± 2%
- survival (wildtype C57BL/6J mice; 30 mg/kg single i.p.): 3 days
- ALT (hyg^R mice [2]; 9 mg/kg single i.p.): 28.7 ± 15.1 u/l
- AST (hyg^R mice [2]; 9 mg/kg single i.p.): 43.0 ± 5.2 u/l
- BUN (hyg^R mice [2]; 9 mg/kg single i.p.): 24.0 ± 4 mg/dL
- ALT (hyg^R mice [2]; 803 mg/kg single i.p.): 108 ± 66.3 u/l
- AST (hyg^R mice [2]; 803 mg/kg single i.p.): 102.0 ± 12.7 u/l
- BUN (hyg^R mice [2]; 803 mg/kg single i.p.): 102 ± 55.1 mg/dL
- ALT (wildtype mice [3]): 108 ± 61.5 u/l
- AST (wildtype mice [3]): 135 ± 29.7 u/l
- BUN (wildtype mice [3]): 97.7 ± 5.5 mg/dL
- Kidney Tubule degeneration, lesion severity grade (hyg^R mice [4]): 0
- Kidney Tubule eosinophilia, lesion severity grade (hyg^R mice [4]): 0
- Kidney Tubule necrosis, lesion severity grade (hyg^R mice [4]): 0
- Liver Acute inflamation, lesion severity grade (hyg^R mice [4]): 0.8 ± 1.0
- Liver Fatty change, lesion severity grade (hyg^R mice [4]): 0.6 ± 0.8
- Liver Necrosis, lesion severity grade (hyg^R mice [4]): 2.2 ± 0.4
- Kidney Tubule degeneration, lesion severity grade (wildtype mice [5]): 2.2 ± 0.4
- Kidney Tubule eosinophilia, lesion severity grade (wildtype mice [5]): 1.0 ± 1.2
- Kidney Tubule necrosis, lesion severity grade (wildtype mice [5]): 1.2 ± 1.1
- Liver Acute inflamation, lesion severity grade (wildtype mice [5]): 0
- Liver Fatty change, lesion severity grade (wildtype mice [5]): 0
- Liver Necrosis, lesion severity grade (wildtype mice [5]): 0
